Common to all, as to assay: relative viability (nuclei count vs DMSO), 5 days (fraction); higher = more cells survive
Compound in assay [1]: COc1ccc(-c2ccc3c(N4CCOC[C@@H]4C)nc(N4CCOC[C@@H]4C)nc3n2)cc1CO [AZD8055] + CC(=O)c1c(C)c2cnc(Nc3ccc(N4CCNCC4)cn3)nc2n(C2CCCC2)c1=O [Palbociclib] (partner 0.5 µM)
The essentials:
(§1)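 Lung cancer cell lines, seeded in 1536-well plates, were treated the following day by pin tool with a single drug or with five library-drug doses (not always all listed) in √10 steps on top of a fixed anchor-drug dose. Cells were fixed and nuclei stained in one step after 5 days, and nuclei were counted. Relative viability is the nuclei count for treated wells divided by that for vehicle wells, reported as medians of duplicate plates.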

Compound in assay [2]: COc1ccc(-c2ccc3c(N4CCOC[C@@H]4C)nc(N4CCOC[C@@H]4C)nc3n2)cc1CO [AZD8055] + CC(C)C[C@H](NC(=O)[C@H](Cc1ccccc1)NC(=O)c1cnccn1)B(O)O [Bortezomib] (partner 0.002 µM)
The method in brief: as §1

Compound in assay [3]: COc1ccc(-c2ccc3c(N4CCOC[C@@H]4C)nc(N4CCOC[C@@H]4C)nc3n2)cc1CO [AZD8055] + Cc1nc(Nc2ncc(C(=O)Nc3c(C)cccc3Cl)s2)cc(N2CCN(CCO)CC2)n1 [Dasatinib] (partner 0.075 µM)
The essentials:
as §1

Compound in assay [4]: COc1ccc(-c2ccc3c(N4CCOC[C@@H]4C)nc(N4CCOC[C@@H]4C)nc3n2)cc1CO [AZD8055] + Cc1nc(NC(=O)N2CCC[C@H]2C(N)=O)sc1-c1ccnc(C(C)(C)C(F)(F)F)c1 [Alpelisib] (partner 2 µM)
The method in brief: as §1

As to NCI-H1651, the relative viability in assay [1] (first compound 0.01 µM) came to 0.507; in assay [1] (first compound 0.03162 µM), 0.472; in assay [1] (first compound 0.1 µM) it was 0.478; in assay [1] (first compound 0.3162 µM), 0.298; in assay [1] (first compound 1 µM) it was 0.253; in assay [2] (first compound 0.01 µM), 1.12. The relative viability in assay [2] (first compound 0.03162 µM) worked out at 0.914; in assay [2] (first compound 0.1 µM) it was 0.924; in assay [2] (first compound 0.3162 µM) it was 0.609; in assay [2] (first compound 1 µM), 0.696; in assay [3] (first compound 0.01 µM), 0.455; in assay [3] (first compound 0.03162 µM) it was 0.368. Besides, the relative viability came to 0.307 in assay [3] (first compound 0.1 µM); 0.226 in assay [3] (first compound 0.3162 µM); 0.253 in assay [3] (first compound 1 µM); 1.04 in assay [4] (first compound 0.01 µM); 0.716 in assay [4] (first compound 0.03162 µM); 0.671 in assay [4] (first compound 0.1 µM). For the same cell line, the figures for the relative viability in assay [4] (first compound 0.3162 µM) and in assay [4] (first compound 1 µM) were 0.405 and 0.325, respectively.
Take LCLC-103H: the relative viability in assay [1] (first compound 0.01 µM) turned out to be 0.52; in assay [1] (first compound 0.03162 µM) it was 0.48; in assay [1] (first compound 0.1 µM) it was 0.398; in assay [1] (first compound 0.3162 µM), 0.468; in assay [1] (first compound 1 µM), 0.421; in assay [2] (first compound 0.01 µM), 1.15. For the same cell line, the relative viability was 0.934 in assay [2] (first compound 0.03162 µM); 0.93 in assay [2] (first compound 0.1 µM); 0.745 in assay [2] (first compound 0.3162 µM); 0.673 in assay [2] (first compound 1 µM); 0.412 in assay [3] (first compound 0.01 µM); 0.315 in assay [3] (first compound 0.03162 µM). For the same cell line, the relative viability in assay [3] (first compound 0.1 µM) was 0.379; in assay [3] (first compound 0.3162 µM) it was 0.2; in assay [3] (first compound 1 µM) it was 0.211; in assay [4] (first compound 0.01 µM), 0.956; in assay [4] (first compound 0.03162 µM), 0.88; in assay [4] (first compound 0.1 µM) it was 0.774. For the same cell line, the relative viability is 0.538 in assay [4] (first compound 0.3162 µM) and 0.422 in assay [4] (first compound 1 µM).
Turning to NCI-H1666, the relative viability in assay [1] (first compound 0.01 µM) amounted to 0.669; in assay [1] (first compound 0.03162 µM) it was 0.643; in assay [1] (first compound 0.1 µM), 0.624; in assay [1] (first compound 0.3162 µM) it was 0.652; in assay [1] (first compound 1 µM), 0.674; in assay [2] (first compound 0.01 µM), 0.932. The relative viability is 0.65 in assay [2] (first compound 0.03162 µM); 0.62 in assay [2] (first compound 0.1 µM); 0.483 in assay [2] (first compound 0.3162 µM); 0.469 in assay [2] (first compound 1 µM); 0.928 in assay [3] (first compound 0.01 µM); 0.853 in assay [3] (first compound 0.03162 µM). The relative viability in assay [3] (first compound 0.1 µM) was 0.739; in assay [3] (first compound 0.3162 µM) it was 0.698; in assay [3] (first compound 1 µM), 0.579; in assay [4] (first compound 0.01 µM), 0.884; in assay [4] (first compound 0.03162 µM) it was 0.696; in assay [4] (first compound 0.1 µM), 0.621. The relative viability in assay [4] (first compound 0.3162 µM) stood at 0.47; in assay [4] (first compound 1 µM) it was 0.438.
Consider NCI-H1734, for which the relative viability in assay [1] (first compound 0.01 µM) was determined as 0.378; in assay [1] (first compound 0.03162 µM) it was 0.386; in assay [1] (first compound 0.1 µM), 0.288; in assay [1] (first compound 0.3162 µM), 0.215; in assay [1] (first compound 1 µM), 0.192; in assay [2] (first compound 0.01 µM) it was 0.954. Also, the relative viability in assay [2] (first compound 0.03162 µM) amounted to 0.729; in assay [2] (first compound 0.1 µM) it was 0.552; in assay [2] (first compound 0.3162 µM) it was 0.278; in assay [2] (first compound 1 µM), 0.274; in assay [3] (first compound 0.01 µM) it was 0.563; in assay [3] (first compound 0.03162 µM), 0.366. The relative viability in assay [3] (first compound 0.1 µM) worked out at 0.318; in assay [3] (first compound 0.3162 µM), 0.152; in assay [3] (first compound 1 µM), 0.162; in assay [4] (first compound 0.01 µM) it was 0.762; in assay [4] (first compound 0.03162 µM), 0.554; in assay [4] (first compound 0.1 µM) it was 0.378. For the same cell line, the relative viability worked out at 0.226 in assay [4] (first compound 0.3162 µM) and 0.23 in assay [4] (first compound 1 µM).

For the origin of these results see the supplement of paper PMC10307832.
